Laboratory results taken from publication PMC8343220, “The selectivity of α‐adrenoceptor agonists for the human α1A, α1B, and α1D‐adrenoceptors” (Pharmacology Research & Perspectives, 2021).
Read-outs that look alike come from different tables or passages of the source.

Assays:
[1] = biological target: T1, human α1A‐adrenoceptor (Homo sapiens, UniProt P35348); assay: ^3H‐cAMP accumulation in the presence of 10 μM forskolin, CHO‐α1A cells; type: cell-based; conditions: CHO‐α1A cells; for cAMP accumulation (in presence of forskolin) Log EC50: 10 μM forskolin; for cAMP accumulation (in presence of forskolin) Fold increase: fold increase of the forskolin response
T1 construct: expressed in transfected cells; host or cells: CHO-K1
T1 sequence (P35348 1-466): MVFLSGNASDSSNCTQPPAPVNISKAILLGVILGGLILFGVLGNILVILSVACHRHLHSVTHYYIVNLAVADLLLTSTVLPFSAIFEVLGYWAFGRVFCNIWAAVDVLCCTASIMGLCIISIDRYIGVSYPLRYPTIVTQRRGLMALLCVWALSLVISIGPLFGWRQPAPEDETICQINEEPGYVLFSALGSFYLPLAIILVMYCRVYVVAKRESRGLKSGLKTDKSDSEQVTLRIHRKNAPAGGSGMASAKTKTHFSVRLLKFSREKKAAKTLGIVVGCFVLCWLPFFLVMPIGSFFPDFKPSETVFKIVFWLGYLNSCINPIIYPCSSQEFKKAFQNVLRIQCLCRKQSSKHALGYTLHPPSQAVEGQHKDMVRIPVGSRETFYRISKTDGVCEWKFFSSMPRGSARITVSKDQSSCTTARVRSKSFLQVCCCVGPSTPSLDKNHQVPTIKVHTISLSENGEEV

[2] = biological target: T1, human α1A‐adrenoceptor; assay: ERK1/2‐phosphorylation (Surefire Alphascreen), CHO‐α1A cells; type: cell-based
[3] = biological target: T1, human α1A‐adrenoceptor; assay: Intracellular free calcium mobilization, CHO‐α1A cells; type: cell-based
[4] = tested on: parental CHO cell line without any transfected receptors; assay: Forskolin‐stimulated cAMP accumulation, parent CHO cells without transfected receptors; type: cell-based, Chinese hamster
[5] = tested on: parental CHO cell line without any transfected receptors; assay: ERK1/2‐phosphorylation, parent CHO cells without transfected receptors; type: cell-based, Chinese hamster
[6] = biological target: T2, human α1D‐adrenoceptor (full length) (Homo sapiens, UniProt P25100); conditions: CHO‐α1D cells; ligands marked ^a; ref Proudman et al., 2020; cited from earlier work
T2 construct: human α1D‐adrenoceptor (full length) were used; expressed in transfected cells; host or cells: CHO-K1
T2 sequence (P25100 1-572): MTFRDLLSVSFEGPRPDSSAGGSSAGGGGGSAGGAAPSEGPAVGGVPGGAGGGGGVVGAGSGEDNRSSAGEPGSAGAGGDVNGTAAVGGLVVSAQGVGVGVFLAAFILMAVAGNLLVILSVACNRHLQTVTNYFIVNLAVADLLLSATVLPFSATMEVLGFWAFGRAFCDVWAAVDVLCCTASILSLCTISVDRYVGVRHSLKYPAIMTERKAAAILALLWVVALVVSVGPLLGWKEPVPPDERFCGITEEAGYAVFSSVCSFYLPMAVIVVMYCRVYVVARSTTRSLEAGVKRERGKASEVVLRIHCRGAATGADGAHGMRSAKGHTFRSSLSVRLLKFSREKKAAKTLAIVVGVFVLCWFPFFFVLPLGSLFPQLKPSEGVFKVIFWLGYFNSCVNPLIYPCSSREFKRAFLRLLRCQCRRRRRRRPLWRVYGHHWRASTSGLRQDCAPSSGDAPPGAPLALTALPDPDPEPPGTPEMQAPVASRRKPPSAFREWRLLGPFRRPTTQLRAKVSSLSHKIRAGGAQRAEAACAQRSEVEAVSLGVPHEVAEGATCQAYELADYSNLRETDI

[7] = biological target: T3, human α1B‐adrenoceptor (Homo sapiens, UniProt P35368); assay: ERK1/2‐phosphorylation (Surefire Alphascreen), CHO‐α1B cells; type: cell-based
T3 construct: expressed in transfected cells; host or cells: CHO-K1
T3 sequence (P35368 1-520): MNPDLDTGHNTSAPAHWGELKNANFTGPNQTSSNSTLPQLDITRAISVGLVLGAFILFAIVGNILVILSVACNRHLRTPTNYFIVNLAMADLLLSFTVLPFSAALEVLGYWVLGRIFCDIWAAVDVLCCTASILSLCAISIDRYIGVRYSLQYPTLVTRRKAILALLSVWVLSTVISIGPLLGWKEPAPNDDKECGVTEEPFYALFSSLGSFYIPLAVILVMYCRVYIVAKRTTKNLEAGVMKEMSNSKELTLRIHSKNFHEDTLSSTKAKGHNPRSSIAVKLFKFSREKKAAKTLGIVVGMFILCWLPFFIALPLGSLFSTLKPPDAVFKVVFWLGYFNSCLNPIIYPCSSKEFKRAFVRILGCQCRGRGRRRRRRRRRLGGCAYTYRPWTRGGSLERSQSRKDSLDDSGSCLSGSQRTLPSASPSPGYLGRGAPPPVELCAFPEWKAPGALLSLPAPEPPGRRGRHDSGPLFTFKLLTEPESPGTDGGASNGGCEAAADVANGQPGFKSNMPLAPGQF

[8] = biological target: T2, human α1D‐adrenoceptor (full length); assay: ERK1/2‐phosphorylation (Surefire Alphascreen), CHO‐α1D cells; type: cell-based
[9] = tested on: parental CHO cell line without any transfected receptors; assay: ^3H‐cAMP accumulation, parent CHO cells without transfected receptors; type: cell-based, Chinese hamster
[10] = biological target: T1, human α1A‐adrenoceptor; conditions: CHO‐α1A cells; given as log KD (negative); ligands marked ^a; ref Proudman et al., 2020; cited from earlier work
[11] = biological target: T2, human α1D‐adrenoceptor (full length); assay: Intracellular free calcium mobilization, CHO‐α1D cells; type: cell-based
[12] = biological target: T1, human α1A‐adrenoceptor; assay: ^3H‐prazosin whole‐cell radioligand binding, CHO‐α1A cells
[13] = biological target: T1, human α1A‐adrenoceptor; assay: ^3H‐cAMP accumulation, CHO‐α1A cells; type: cell-based; conditions: CHO‐α1A cells; for cAMP accumulation Log EC50: 5 h; for cAMP accumulation % forskolin: % of 10 µM forskolin response
[14] = biological target: T2, human α1D‐adrenoceptor (full length); assay: ^3H‐prazosin whole‐cell radioligand binding, CHO‐α1D cells
[15] = tested on: parental CHO cell line without any transfected receptors; assay: Intracellular calcium mobilization, parent CHO cells without transfected receptors; type: cell-based, Chinese hamster
[16] = biological target: T3, human α1B‐adrenoceptor; assay: Intracellular free calcium mobilization, CHO‐α1B cells; type: cell-based
[17] = biological target: T3, human α1B‐adrenoceptor; conditions: CHO‐α1B cells; given as log KD (negative); ligands marked ^a; ref Proudman et al., 2020; cited from earlier work
[18] = CHO‐α1D cells, response at 100 µM ligand (no EC50 given)

In the case of CCC1(C2=NCCN2)Cc2ccccc2O1 (stereo not drawn) [Eforaxan], the “cAMP accumulation (in presence of forskolin) Log EC50” value [1] is reported as −5.93 ± 0.13, the “cAMP accumulation (in presence of forskolin) Fold increase” value [1] is reported as 1.47 ± 0.13 fold and the “ERK1/2‐phosphorylation % PDBu” value [2] is reported as 76.4 ± 5.2%. For the same molecule, the “ERK1/2‐phosphorylation Log EC50” value [2] was −6.12 ± 0.07, the “Intracellular calcium release % ionomycin” value [3] was 45.0 ± 2.6% and the “Intracellular calcium release Log EC50” value [3] was −6.83 ± 0.10. For the same molecule, the “Log efficacy ratio KD /EC50” value [3] was 1.36, the “cAMP accumulation (in presence of forskolin) % forskolin-stim cAMP” value [4] was “No response” and the “cAMP accumulation (in presence of forskolin) Log EC50” value [4] was “No response”. For the same molecule, the “ERK1/2-phosphorylation % PDBu” value [5] was “No response”, the “ERK1/2-phosphorylation Log EC50” value [5] was “No response” and the “Log KD α1D, ^3H‐prazosin whole cell binding (single site or first, higher affinity component)” value (“Log KD α1D” for short) [6] was −4.97 ± 0.06. For the same molecule, the “ERK1/2‐phosphorylation % PDBu at 100 µM” value [7] was 11.9 ± 2.4%, the “ERK1/2‐phosphorylation % PDBu at 100 µM” value [8] was 2.7 ± 1.5% and the “cAMP accumulation % forskolin” value [9] was “No response”. For the same molecule, the “Log KD α1A, ^3H‐prazosin whole cell binding” value (“Log KD α1A” for short) [10] was −5.47 ± 0.03, the “Intracellular calcium release % Ionomycin at 100 µM” value [11] was 2.8 ± 0.8% and the “Affinity selectivity ratio α1A vs α1B” value [12] was 15.8 fold. For the same molecule, the “Affinity selectivity ratio α1A vs α1D” value [12] was 3.2 fold, the “cAMP accumulation Log EC50” value [13] was −5.47 ± 0.10 and the “cAMP accumulation % forskolin” value [13] was 4.0 ± 0.6%. The “3H‐prazosin binding Log KD” value [14] was −4.97, the “Affinity selectivity ratio α1B vs α1D” value [14] was 5.0 fold and the “Intracellular calcium release % ionomycin” value [15] was “No response”. The “Intracellular calcium release % ionomycin” value [16] was “No response”, the “Intracellular calcium release Log EC50” value [16] was “No response” and the “Log KD α1B, ^3H‐prazosin whole cell binding” value (“Log KD α1B” for short) [17] was −4.27 ± 0.07.
In the case of CC1c2ccccc2CN1CC1=NCCN1 (stereo not drawn) [BRL44408], the “cAMP accumulation (in presence of forskolin) Log EC50” value [1] is reported as −6.43 ± 0.09, the “cAMP accumulation (in presence of forskolin) Fold increase” value [1] is reported as 1.62 ± 0.08 fold and the “ERK1/2‐phosphorylation Log EC50” value ([2]; CHO‐α1A cells, 2–4 min, ^a bi‐phasic: initial stimulatory part, ^b also active in parent CHO cells) is reported as −7.03 ± 0.14. For the same molecule, the “ERK1/2‐phosphorylation % PDBu” value ([2]; CHO‐α1A cells, % of 10 µM PDBu, ^a bi‐phasic: initial stimulatory part) was 77.4 ± 4.1%, the “Log efficacy ratio KD /EC50” value ([3]; CHO‐α1A cells, binding KD and calcium EC50) was 1.32 and the “Intracellular calcium release Log EC50” value ([3]; CHO‐α1A cells, given as log EC50 (negative)) was −7.24 ± 0.10. The “Intracellular calcium release % ionomycin” value ([3]; CHO‐α1A cells, maximal response as % of 10 µM ionomycin) was 36.5 ± 5.4%, the “cAMP accumulation (in presence of forskolin) % forskolin-stim cAMP at 100μM” value ([4]; CHO cells without transfected receptors, response at 100μM only, EC50 not obtainable, % of forskolin-stimulated cAMP) was 77.6 ± 2.3% and the “ERK1/2-phosphorylation % PDBu at 100μM” value ([5]; CHO cells without transfected receptors, response at 100μM only, EC50 not obtainable, % of PDBu (10μM)) was 17.6 ± 8.1%. For the same molecule, the “Log KD α1D” value [6] was −5.06 ± 0.05, the “ERK1/2‐phosphorylation % PDBu at 100 µM” value ([7]; CHO‐α1B cells, response at 100 µM ligand (no EC50 given)) was 47.0 ± 7.0% and the “ERK1/2‐phosphorylation % PDBu at 100 µM” value [8, 18] was 47.4 ± 5.7%. For the same molecule, the “Log KD α1A” value [10] was −5.92 ± 0.09, the “Intracellular calcium release % Ionomycin at 100 µM” value [11, 18] was 4.5 ± 2.1% and the “Affinity selectivity ratio α1A vs α1B” value ([12]; higher affinity for α1A than α1B) was 17.4 fold. For the same molecule, the “cAMP accumulation Log EC50” value [13] was −6.27 ± 0.17, the “cAMP accumulation % forskolin” value [13] was 4.7 ± 0.5% and the “3H‐prazosin binding Log KD” value ([14]; CHO‐α1D cells, whole‐cell binding (from Table 1), log values given negative) was −5.06. For the same molecule, the “Affinity selectivity ratio α1B vs α1D” value ([14]; higher affinity for α1D than α1B) was 2.4 fold, the “Intracellular calcium release % Ionomycin at 100 µM” value ([16]; CHO‐α1B cells, response at 100 µM ligand (no EC50 given), % of ionomycin response) was 13.7 ± 6.5% and the “Log KD α1B” value [17] was −4.68 ± 0.07.
In the case of O=C1CCC(=O)N1C[C@H]1CC[C@H]2CN(c3ncccn3)CCN2C1 [Sunepitrion], the “ERK1/2‐phosphorylation % PDBu” value [2] is reported as 39.7 ± 8.4%, the “ERK1/2‐phosphorylation Log EC50” value [2] is reported as −5.96 ± 0.12 and the “Intracellular calcium release % ionomycin” value [3] is reported as 30.1 ± 3.0%. The “Intracellular calcium release Log EC50” value [3] was −6.17 ± 0.14, the “Log efficacy ratio KD /EC50” value [3] was 0.39 and the “ERK1/2-phosphorylation % PDBu at 100μM” value [5] was 4.1 ± 2.7%. The “Log KD α1D” value [6] was −5.33 ± 0.23, the “ERK1/2‐phosphorylation % PDBu” value [7] was 7.8 ± 2.8% and the “ERK1/2‐phosphorylation % PDBu at 100 µM” value [8] was 2.4 ± 1.1%. The “Log KD α1A” value [10] was −5.78 ± 0.06, the “Intracellular calcium release % Ionomycin at 100 µM” value [11] was 2.5 ± 0.5% and the “Affinity selectivity ratio α1A vs α1B” value [12] was 13.5 fold. For the same molecule, the “Affinity selectivity ratio α1A vs α1D” value [12] was 2.8 fold, the “3H‐prazosin binding Log KD” value [14] was −5.33 and the “Affinity selectivity ratio α1B vs α1D” value [14] was 4.8 fold. For the same molecule, the “Intracellular calcium release % ionomycin” value [15] was “No response”, the “Intracellular calcium release % Ionomycin at 100 µM” value [16] was 8.2 ± 1.3% and the “Log KD α1B” value [17] was −4.65 ± 0.06.
